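How tested: cells in 96-well plates exposed to compound for 48 hours at five concentrations. TGI: concentration producing complete growth inhibition.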

Test systems include SF-539 CNS; MOLT-4 leukemia; A549 NSCLC; NCI-H522 lung; UO-31 renal; ACHN renal; EKVX NSCLC; A498 renal; NCI/ADR-RES ovarian; MALME-3M melanoma; HOP-62 NSCLC; OVCAR-5 ovarian; T-47D breast; SN12C renal; UACC-257 melanoma; BT-549 breast; HL-60(TB) leukemia; RXF 393 renal; M14 melanoma; CCRF-CEM leukemia.
Common to all, as to assay: inhibition of tumour cell growth, NCI panel, 48 h

In the case of `CCn1cc(C(=O)O)c(=O)c2cc(F)c(N3CCN(Cn4c(O)c(N=NC(=O)c5ccncc5)c5cc(Cl)ccc54)CC3)cc21`, the TGI is 63.1 µM in the assay with SF-539 CNS; 36 µM in the assay on MOLT-4 leukemia; over 100 µM in the assay with A549 NSCLC; 63.6 µM in the assay on NCI-H522 lung; over 100 µM in the assay on UO-31 renal; over 100 µM in the assay with ACHN renal. In addition, the TGI with EKVX NSCLC was over 100 µM; in the assay on A498 renal, over 100 µM; in the assay on NCI/ADR-RES ovarian, over 100 µM; in the assay with MALME-3M melanoma, over 100 µM; in the assay with HOP-62 NSCLC it was 55.2 µM; in the assay on OVCAR-5 ovarian, over 100 µM. Further, the TGI was over 100 µM with T-47D breast; over 100 µM in the assay with SN12C renal; over 100 µM with UACC-257 melanoma; over 100 µM in the assay on BT-549 breast; 37 µM in the assay on HL-60(TB) leukemia; 51.3 µM in the assay on RXF 393 renal. Also, the TGI in the assay on M14 melanoma is over 100 µM.

`CC(=O)/C(=C/N1C(=O)CC(=O)NC1=S)C(=O)Nc1ccccc1C`: the TGI with SF-539 CNS, in the assay with MOLT-4 leukemia, with A549 NSCLC, with UO-31 renal, in the assay on ACHN renal and in the assay on EKVX NSCLC was over 100 µM each time. For the same compound, the TGI with A498 renal is over 100 µM; with NCI/ADR-RES ovarian it was over 100 µM; in the assay with HOP-62 NSCLC, 64.2 µM; in the assay with OVCAR-5 ovarian, over 100 µM; with T-47D breast, over 100 µM; with SN12C renal, over 100 µM. In addition, the TGI with UACC-257 melanoma, with BT-549 breast, with HL-60(TB) leukemia, in the assay with RXF 393 renal and in the assay on M14 melanoma was over 100 µM throughout.

On to `C/C(=C\c1csc(C)n1)[C@@H]1C[C@@H]2O[C@]2(C)CCC[C@H](C)[C@H](O)[C@@H](C)C(=O)C(C)(C)[C@@H](O)CC(=O)O1` (tested in a mixture with another compound), for which the TGI is 0.0348 µM with SF-539 CNS; over 0.307 µM with MOLT-4 leukemia; over 1 µM in the assay on A549 NSCLC; 0.00766 µM in the assay on NCI-H522 lung; over 1 µM with UO-31 renal; over 1 µM in the assay on ACHN renal. In addition, the TGI in the assay with EKVX NSCLC is over 1 µM; in the assay on A498 renal, over 1 µM; in the assay on NCI/ADR-RES ovarian, 0.13 µM; in the assay with MALME-3M melanoma, over 1 µM; in the assay on HOP-62 NSCLC it was over 1 µM; with OVCAR-5 ovarian, over 1 µM. The TGI is over 1 µM with T-47D breast; over 1 µM in the assay on SN12C renal; over 1 µM with UACC-257 melanoma; over 1 µM with BT-549 breast; 0.0278 µM in the assay on HL-60(TB) leukemia; 0.0211 µM with RXF 393 renal. In the assay with M14 melanoma, this compound registered a TGI of over 1 µM.

`COc1ccc(OC)c2sc(N3C(=O)/C(=C/c4ccccc4S)N=C3c3ccccc3)nc12`: the TGI was 85.4 µM with SF-539 CNS; 35 µM with MOLT-4 leukemia; over 100 µM in the assay on A549 NSCLC; 77.2 µM in the assay on UO-31 renal; over 100 µM in the assay on ACHN renal; over 100 µM in the assay with EKVX NSCLC. In addition, the TGI in the assay on A498 renal is over 100 µM; in the assay on NCI/ADR-RES ovarian it was over 100 µM; in the assay on HOP-62 NSCLC it was over 100 µM; with CCRF-CEM leukemia, 42.5 µM; in the assay on OVCAR-5 ovarian, over 100 µM; in the assay with T-47D breast it was over 100 µM. Further, the TGI in the assay on SN12C renal is 81.9 µM; with UACC-257 melanoma, over 100 µM; in the assay with BT-549 breast, over 100 µM; in the assay on HL-60(TB) leukemia, 79.3 µM; in the assay with RXF 393 renal, 58.5 µM; with M14 melanoma it was over 100 µM.

With `O=C1CC(n2cccc2)c2cc(Br)sc21` (configuration not stated), the TGI in the assay on SF-539 CNS was over 100 µM; in the assay on MOLT-4 leukemia, 87 µM; in the assay on A549 NSCLC, over 100 µM; in the assay with NCI-H522 lung, 75.5 µM; in the assay with UO-31 renal, over 100 µM; in the assay with ACHN renal, over 100 µM. Besides, the TGI with EKVX NSCLC is over 100 µM; in the assay on A498 renal, over 100 µM; in the assay on NCI/ADR-RES ovarian, over 100 µM; with MALME-3M melanoma it was over 100 µM; in the assay on HOP-62 NSCLC, over 100 µM; in the assay on CCRF-CEM leukemia, 60 µM. The TGI in the assay with OVCAR-5 ovarian, in the assay on T-47D breast, in the assay on SN12C renal, in the assay on UACC-257 melanoma, with BT-549 breast and in the assay with HL-60(TB) leukemia was over 100 µM in each case. This compound came in with a TGI in the assay on M14 melanoma of over 100 µM.

`CCOC(=O)Cc1nc2nn(Cc3ccccc3)cc2c(=O)[nH]1`: the TGI in the assay on SF-539 CNS, in the assay with MOLT-4 leukemia, with A549 NSCLC, in the assay with UO-31 renal, in the assay on ACHN renal and in the assay with EKVX NSCLC was over 100 µM throughout. Moreover, the TGI with A498 renal, in the assay with NCI/ADR-RES ovarian, in the assay on MALME-3M melanoma, in the assay on HOP-62 NSCLC, in the assay on CCRF-CEM leukemia and in the assay with OVCAR-5 ovarian was over 100 µM each time. Also, the TGI with T-47D breast, in the assay on SN12C renal, in the assay with UACC-257 melanoma, in the assay with BT-549 breast, in the assay on HL-60(TB) leukemia and in the assay on RXF 393 renal was over 100 µM each time.

Take `COc1ccc(OC)c2c(=O)cc(-c3ccccc3)[nH]c12`: the TGI with MOLT-4 leukemia, with A549 NSCLC, in the assay with NCI-H522 lung, with UO-31 renal, with ACHN renal and in the assay on EKVX NSCLC was over 100 µM each time. Moreover, the TGI in the assay on A498 renal, in the assay on NCI/ADR-RES ovarian, with MALME-3M melanoma, in the assay on HOP-62 NSCLC, with CCRF-CEM leukemia and in the assay on OVCAR-5 ovarian was over 100 µM each time. Further, the TGI in the assay on T-47D breast, in the assay with SN12C renal, in the assay on UACC-257 melanoma, in the assay on BT-549 breast, with HL-60(TB) leukemia and with RXF 393 renal was over 100 µM in each case. Moreover, the TGI in the assay on M14 melanoma is over 100 µM.

`O=c1c2cc([N+](=O)[O-])cnc2sn1-c1ccc(Oc2ccccc2)cc1`: the TGI in the assay on SF-539 CNS was over 100 µM; in the assay with MOLT-4 leukemia it was over 100 µM; with A549 NSCLC it was over 100 µM; in the assay with NCI-H522 lung, 34.1 µM; in the assay on UO-31 renal, over 100 µM; in the assay with ACHN renal it was over 100 µM. Also, the TGI in the assay on EKVX NSCLC was over 100 µM; with NCI/ADR-RES ovarian, over 100 µM; in the assay on MALME-3M melanoma it was 74.9 µM; with HOP-62 NSCLC, over 100 µM; in the assay on CCRF-CEM leukemia, over 100 µM; in the assay on OVCAR-5 ovarian, over 100 µM. For the same compound, the TGI in the assay with T-47D breast was 56.6 µM; in the assay on SN12C renal, over 100 µM; in the assay with UACC-257 melanoma it was over 100 µM; in the assay on BT-549 breast, over 100 µM; with HL-60(TB) leukemia it was over 100 µM; in the assay on M14 melanoma, over 100 µM.
